Source: ChEMBL document CHEMBL1697821, “Development of a phospholipidosis database and predictive quantitative structure-activity relationship (QSAR) models” (Toxicol Mech Methods, 2008)

system: Phospholipidosis; test: Literature-mined public compounds from Kruhlak et al phospholipidosis modelling dataset

Row | SMILES | Phospholipidosis
1 | CC[C@]1(O)CC[C@H]2[C@@H]3CCC4=CCCC[C@@H]4[C@H]3CC[C@@]21C | Negative: based on the absence of positive reported data from WMDD
2 | CC(=O)O.C[C@H]1C[C@@H]2[C@H]([C@@H](O)C[C@@]3(C)[C@H]2CC[C@]3(O)C(=O)CO)[C@@]2(C)C=CC(=O)C=C12 | Negative: based on the absence of positive reported data from WMDD
3 | CNS(=O)(=O)Cc1ccc2[nH]cc(CCN(C)C)c2c1 | Negative: confirmed by electron microscopy
4 | CC[C@@H](C(N)=O)N1CCCC1=O | Negative: based on the absence of positive reported data from WMDD
5 | COc1ccc(CC2c3cc(OC)c(OC)cc3CC[N+]2(C)CCC(=O)OCCCCCOC(=O)CC[N+]2(C)CCc3cc(OC)c(OC)cc3C2Cc2ccc(OC)c(OC)c2)cc1OC (stereo unspecified) | Negative: based on the absence of positive reported data from WMDD
6 | CN(C)CCN(Cc1cccs1)c1ccccn1 | Negative: confirmed by electron microscopy
7 | CCN(CC)CCSC(=O)C(c1ccccc1)c1ccccc1 | Negative: based on the absence of positive reported data from WMDD
8 | COc1nccnc1NS(=O)(=O)c1ccc(N)cc1 | Negative: based on the absence of positive reported data from WMDD
9 | CN1CCN(Cc2nc3cccc4c3c([n+]2[O-])-c2ccccc2-4)CC1 | Positive: weak inducer based on presence of foamy macrophages and cytoplasmic vacuolations
10 | CCOC(=O)[C@H](CCc1ccccc1)N[C@@H](C)C(=O)N1Cc2ccccc2C[C@H]1C(=O)O | Negative: based on the absence of positive reported data from WMDD
11 | CN(C)CCC=C1c2ccccc2CCc2c(Cl)cccc21 | Positive: strong inducer confirmed by electron microscopy
12 | OC(CN1CCCCC1)c1ccc(C=C2c3ccccc3-c3ccccc32)cc1 (stereo unspecified) | Positive: strong inducer confirmed by electron microscopy
13 | CCCC[C@@H]1CC(=O)[C@]2(O)O[C@@H]3[C@@H](NC)[C@@H](O)[C@@H](NC)[C@H](O)[C@H]3O[C@@H]2O1.O=S(=O)(O)O | Positive: strong inducer confirmed by electron microscopy
14 | CN1CCN(C2=Nc3cc(Cl)ccc3N(C)n3cccc32)CC1 | Positive: strong inducer confirmed by electron microscopy
15 | CN(C)CCC=C1c2ccccc2C=Cc2c(Cl)cccc21 | Positive: strong inducer confirmed by electron microscopy
16 | CCN(CC)CCn1nc2c3c(c(C)ccc31)Sc1cc(Cl)ccc1-2 | Positive: strong inducer confirmed by electron microscopy
17 | CCN(CC)Cc1cc(Nc2ccnc3cc(Cl)ccc23)ccc1O.Cl | Positive: weak inducer based on presence of foamy macrophages and cytoplasmic vacuolations
18 | CC1(C)OCC(C(CS(=O)(=O)c2ccc(Oc3cccc(OC(F)(F)F)c3)cc2)NC=O)O1 (stereo unspecified) | Negative: confirmed by electron microscopy
19 | CC1(C)C(=O)NC(=O)N1CC(COc1ccc(-c2ccc(OC(F)(F)F)cc2)cc1)NC=O (stereo unspecified) | Negative: confirmed by electron microscopy
20 | CC1(C)C(=O)NC(=O)N1CC(N)COc1ccc(-c2ccc(OC(F)(F)F)cc2)cc1 (stereo unspecified) | Positive: weak inducer based on presence of foamy macrophages and cytoplasmic vacuolations
21 | CCCN[C@@H]1[C@H](C)[C@@H](O)[C@](C)(O)[C@@H](CC)OC(=O)[C@H](C)[C@@H](O[C@H]2C[C@@](C)(OC)[C@@H](O)[C@H](C)O2)[C@H](C)[C@@H](O[C@@H]2O[C@H](C)C[C@H](N(C)C)[C@H]2O)[C@](C)(O)C[C@H]1C | Positive: weak inducer based on presence of foamy macrophages and cytoplasmic vacuolations

Row | SMILES | Phospholipidosis
22 | CCCNCCc1ccc(NS(=O)(=O)c2ccc(OC(F)(F)F)cc2)cc1 | Positive: strong inducer confirmed by electron microscopy
23 | CCC(c1ccc2cc(OC)ccc2c1)C(C)(C)C(=O)O (stereo unspecified) | Negative: based on the absence of positive reported data from WMDD
24 | NC[C@H]1Cc2ccc(F)cc2[C@@H](c2ccccc2)O1 | Positive: strong inducer confirmed by electron microscopy
25 | Clc1ccccc1CNC[C@H]1CC[C@H](CNCc2ccccc2Cl)CC1 | Positive: strong inducer confirmed by electron microscopy
26 | CC1(C)OC[C@H]([C@@H](CS(=O)(=O)c2ccc(Oc3ccc(OC(F)(F)F)cc3)cc2)N(O)C=O)O1 | Negative: confirmed by electron microscopy
27 | NCCc1cc(O)c(O)c(O)c1 | Positive: strong inducer confirmed by electron microscopy
28 | CCC[C@@H](NC(=O)N1C(=O)C(CC)(CC)[C@@H]1Oc1ccc(C(=O)N2CCN(C)CC2)cc1)c1ccc2c(c1)OCO2 | Positive: weak inducer based on presence of foamy macrophages and cytoplasmic vacuolations
29 | O=P(O)(O)OCC(O)CO (stereo unspecified) | Negative: based on the absence of positive reported data from WMDD
30 | CC1(C)NC(=O)N(C[C@@H](COc2ccc(-c3ccc(OC(F)(F)F)cc3)cc2)N(O)C=O)C1=O | Negative: confirmed by electron microscopy
31 | C[n+]1ccc(-c2cc[n+](C)cc2)cc1 | Positive: strong inducer confirmed by electron microscopy
32 | N[C@@H](Cc1ccc(N(CCCl)CCCl)cc1)C(=O)O | Negative: based on the absence of positive reported data from WMDD
33 | CC(=O)Nc1ccc(O)cc1 [ACETAMINOPHEN] | Negative: confirmed by electron microscopy
34 | CC(=O)c1ccc2c(c1)N(CCCN1CCN(CCO)CC1)c1ccccc1S2 [ACETOPHENAZINE] | Negative: based on the absence of positive reported data from WMDD
35 | CC(=O)Nc1c(I)cc(I)c(C(=O)O)c1I [ACETRIZOIC ACID] | Negative: based on the absence of positive reported data from WMDD
36 | Nc1ncnc2nc[nH]c12 [ADENINE] | Negative: based on the absence of positive reported data from WMDD
37 | Nc1ncnc2c1ncn2[C@@H]1O[C@H](CO)[C@@H](O)[C@H]1O [ADENOSINE] | Negative: based on the absence of positive reported data from WMDD
38 | CCCSc1ccc2nc(NC(=O)OC)[nH]c2c1 [ALBENDAZOLE] | Negative: based on the absence of positive reported data from WMDD
39 | C=CCN1C(=O)C(CC(C)C)NC1=S (stereo unspecified) [ALBUTOIN] | Negative: based on the absence of positive reported data from WMDD
40 | Oc1ncnc2[nH]ncc12 [ALLOPURINOL] | Positive: weak inducer based on presence of foamy macrophages and cytoplasmic vacuolations
41 | C=CC[C@]1(O)CC[C@H]2[C@@H]3CCC4=CCCC[C@@H]4[C@H]3CC[C@@]21C [ALLYLESTRENOL] | Negative: based on the absence of positive reported data from WMDD
42 | NC12CC3CC(CC(C3)C1)C2 [AMANTADINE] | Positive: strong inducer confirmed by electron microscopy

Row | SMILES | Phospholipidosis
43 | N=C(N)N/N=C1C=C/C(=N\NC(N)=S)C=C\1 [AMBAZONE] | Negative: based on the absence of positive reported data from WMDD
44 | Nc1c(Br)cc(Br)cc1CN[C@H]1CC[C@H](O)CC1 [AMBROXOL] | Positive: weak inducer based on presence of foamy macrophages and cytoplasmic vacuolations
45 | NCC[C@H](O)C(=O)N[C@@H]1C[C@H](N)[C@@H](O[C@H]2O[C@H](CN)[C@@H](O)[C@H](O)[C@H]2O)[C@H](O)[C@H]1O[C@H]1O[C@H](CO)[C@@H](O)[C@H](N)[C@H]1O [AMIKACIN] | Positive: strong inducer confirmed by electron microscopy
46 | CCC1(c2ccc(N)cc2)CCC(=O)NC1=O (stereo unspecified) [AMINOGLUTETHIMIDE] | Negative: based on the absence of positive reported data from WMDD
47 | Nc1nc(N)c2nc(CNc3ccc(C(=O)N[C@@H](CCC(=O)O)C(=O)O)cc3)cnc2n1 [AMINOPTERIN] | Negative: based on the absence of positive reported data from WMDD
48 | CCCCc1oc2ccccc2c1C(=O)c1cc(I)c(OCCN(CC)CC)c(I)c1 [AMIODARONE] | Positive: strong inducer confirmed by electron microscopy
49 | CN(C)CCC=C1c2ccccc2CCc2ccccc21 [AMITRIPTYLINE] | Positive: strong inducer confirmed by electron microscopy
50 | CC1(C)S[C@@H]2[C@H](NC(=O)[C@H](N)c3ccc(O)cc3)C(=O)N2[C@H]1C(=O)O [AMOXICILLIN] | Negative: based on the absence of positive reported data from WMDD
51 | CC(N)Cc1ccccc1 (stereo unspecified) [AMPHETAMINE] | Negative: based on the absence of positive reported data from WMDD
52 | N=c1ccn2c(n1)O[C@H]1[C@H](O)[C@@H](CO)O[C@H]12 [ANCITABINE] | Negative: based on the absence of positive reported data from WMDD
53 | C[C@]12CC[C@H]3[C@@H](CC=C4C[C@@H](O)CC[C@@]43C)[C@@H]1CC[C@@H]2O [ANDROSTENEDIOL] | Negative: based on the absence of positive reported data from WMDD
54 | CCOC(=O)C1(c2ccccc2)CCN(CCc2ccc(N)cc2)CC1 [ANILERIDINE] | Negative: based on the absence of positive reported data from WMDD
55 | CCCC(CCC)C(=O)O[C@H]1C[C@H]2CC[C@@H](C1)[N+]2(C)C.[Br-] [ANISOTROPINE METHYLBROMIDE] | Negative: based on the absence of positive reported data from WMDD
56 | c1ccc(CN(CC2=NCCN2)c2ccccc2)cc1 [ANTAZOLINE] | Negative: based on the absence of positive reported data from WMDD
57 | CCCC1C(=O)N2C(N(C)C)=Nc3ccc(C)cc3N2C1=O (stereo unspecified) [APAZONE] | Negative: based on the absence of positive reported data from WMDD
58 | CN1[C@@H]2CC[C@H]1C[C@@H](OC(=O)C(CO)c1ccccc1)C2 (stereo partly specified) [ATROPINE] | Positive: weak inducer based on presence of foamy macrophages and cytoplasmic vacuolations
59 | CN(C)CCCN(C)[C@H]1CC[C@H]2[C@@H]3CC=C4C[C@@H](O)CC[C@]4(C)[C@H]3CC[C@]12C [AZACOSTEROL] | Positive: strong inducer confirmed by electron microscopy
60 | CC(=O)OC[C@H]1O[C@@H](n2ncc(=O)[nH]c2=O)[C@H](OC(C)=O)[C@@H]1OC(C)=O [AZARIBINE] | Negative: based on the absence of positive reported data from WMDD
61 | CN1CCN(CCCCN2C(=O)CN(/N=C/c3ccc(-c4ccc(Cl)cc4)o3)C2=O)CC1.Cl.Cl [AZIMILIDE DIHYDROCHLORIDE] | Positive: weak inducer based on presence of foamy macrophages and cytoplasmic vacuolations
